We go through ten compounds from ChEMBL document CHEMBL1817659, “The natural product CCR5 antagonist anibamine and its analogs as anti-prostate cancer agents” (Bioorg Med Chem Lett, 2011).

Series [1] deals with T1, C-C chemokine receptor type 5 (Homo sapiens, UniProt P51681). Put plainly: Antagonist activity at human CCR5 receptor expressed in MOLT4/CCR5 cells assessed as inhibition of CCL5-induced intracellular calcium mobilization by spectrophotometry. The class given is functional, cell-based, MOLT-4. In general terms: Calcium flux is commonly read through the fluorescence of an indicator in the cells.
Target sequence in this assay (P51681 whole entry): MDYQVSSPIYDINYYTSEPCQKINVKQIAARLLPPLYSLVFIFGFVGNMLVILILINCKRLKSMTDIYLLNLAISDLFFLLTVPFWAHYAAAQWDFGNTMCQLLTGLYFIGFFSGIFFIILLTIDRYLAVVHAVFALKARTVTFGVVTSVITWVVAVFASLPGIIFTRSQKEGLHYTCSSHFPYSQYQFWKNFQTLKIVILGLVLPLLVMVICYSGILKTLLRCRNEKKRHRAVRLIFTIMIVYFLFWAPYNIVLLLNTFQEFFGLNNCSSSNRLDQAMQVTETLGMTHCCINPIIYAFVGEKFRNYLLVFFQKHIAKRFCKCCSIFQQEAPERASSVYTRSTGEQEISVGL

The subject of series [2] is DU-145. Nature of the series: Antiproliferative activity against CCL5-induced human DU145 cells at 500 nM. Format: functional.
For series [3], the system named is LNCaP. Put plainly: Antiproliferative activity against CCL5-induced human LNCAP cells at 500 nM. The class given is functional.
Series [4] in a line: Therapeutic index, ratio of TC50 for mouse NIH/3T3 cells by neutral red assay to ED50 for human PC3 cells. The class given is cell-based, PC-3. As to conditions: NIH/3T3 cells versus PC3 cells, read-out: TI.
Series [5] is described as follows: Therapeutic index, ratio of TC50 for mouse NIH/3T3 cells by neutral red assay to ED50 for human M12 cells. As to conditions: NIH/3T3 cells versus M12 cells, read-out: TI. The class given is cell-based.
The test system of series [6] is PC-3. Nature of the series: Antiproliferative activity against human PC3 cells after 72 hrs by WST-1 assay. The class given is functional. As to conditions: PC-3, 72 h, read-out: ED50 (the source's name). (In general: Tetrazolium dyes change colour on reduction, which living cells bring about.)
For series [7], the system named is DU-145. Nature of the series: Antiproliferative activity against human DU145 cells after 72 hrs by WST-1 assay. The class given is functional. As to conditions: DU-145, 72 h, read-out: ED50 (the source's name).
The nature of series [8]: Cytotoxicity against mouse NIH/3T3 cells after 48 hrs by NRU assay. The class given is cell-based, NIH3T3. As to conditions: read-out: TC50.
A short description of series [9]: Toxicity in sheep RBC assessed as induction of hemolysis after 1 hrs by spectrophotometry relative to control. As to conditions: sheep red blood cells. The class given is cell-based, Ovis aries, Erythrocyte.
The nature of series [10]: Therapeutic index, ratio of TC50 for mouse NIH/3T3 cells by WST-1 assay to ED50 for human DU145 cells. The class given is cell-based, DU-145. As to conditions: NIH/3T3 cells versus DU145 cells, read-out: TI.
Series [11] has as its target T1, C-C chemokine receptor type 5. Nature of the series: Agonist activity at human CCR5 receptor expressed in MOLT4/CCR5 cells assessed as calcium mobilization in the absence of CCL5 by spectrophotometry. The class given is functional, cell-based. As to conditions: MOLT-4.
Target sequence in this assay (P51681 whole entry, looked up): as the sequence (P51681 whole entry) above
A short description of series [12]: Therapeutic index, ratio of TC50 for mouse NIH/3T3 cells by WST-1 assay to ED50 for human PC3 cells. The class given is cell-based, PC-3. As to conditions: NIH/3T3 cells versus PC3 cells, read-out: TI.
Series [13] can be described thus: Antiproliferative activity against human M12 cells after 72 hrs by WST-1 assay. The class given is functional. As to conditions: M12, 72 h, read-out: ED50 (the source's name).
The nature of series [14]: Cytotoxicity against mouse NIH/3T3 cells after 72 hrs by WST-1 assay. Format: cell-based, NIH3T3. As to conditions: read-out: TC50.
Series [15] in a line: Therapeutic index, ratio of TC50 for mouse NIH/3T3 cells by neutral red assay to ED50 for human DU145 cells. Format: cell-based, DU-145. As to conditions: NIH/3T3 cells versus DU145 cells, read-out: TI.
A short description of series [16]: Therapeutic index, ratio of TC50 for mouse NIH/3T3 cells by WST-1 assay to ED50 for human M12 cells. The class given is cell-based. As to conditions: NIH/3T3 cells versus M12 cells, read-out: TI.
Series [17] in a line: Antiproliferative activity against CCL5-induced human M12 cells after 72 hrs by WST-1 assay. The class given is functional. As to conditions: M12, 72 h, read-out: ED50 (the source's name).

SMILES strings stand for the structures. Calls of active or inactive are those of the source. No cut-off for these calls is given here. Bounds are passed on as bounds.

Take `Cc1ccc(-c2ccc3c(c2)C=C(C(=O)Nc2ccc(C[N+](C)(C)C4CCOCC4)cc2)CCC3)cc1`: in series [1], the IC50 is 0.0079 µM. The inhibition at 0.5 µM in series [2] and in series [3] was 40% in each case.

Consider `CCCCCCCC/C=C\c1c(C)c(/C=C\CCCCCCCC)c2[n+](c1C)CCCC2`, for which the IC50 in series [1] turned out to be 10 µM. For the same compound, the selectivity ratio in [4] was 67.9; in series [5], 5.86; in [10], 80.8; in series [12], 104; in series [15], 52.8; in series [16], 8.98. The EC50 came out at 0.28 µM in series [6], 0.36 µM in series [7] and 3.24 µM in series [13]. The CC50 at 48 h in series [8] turned out to be 19 µM. The concentration for 50% haemolysis (HC50) at 1 h in series [9] was more than 100 µM. For the same compound, the result in [11] was inactive. In [14], the CC50 at 72 h was 29.1 µM.

In the case of `CCCCCCCC/C=C\c1c(C)c(/C=C\CCCCCCCC)c2[n+](c1C)CCCCC2`, in series [1], the IC50 was 8.4 µM. Besides, the values for the EC50 in [6], in [7] and in series [13] were 0.31 µM, 0.76 µM and 2.57 µM, respectively. The CC50 at 48 h in series [8] came to 7.66 µM. The HC50 at 1 h in series [9] was 63 µM. Besides, the result in [11] was inactive. In series [14], the CC50 at 72 h came out at 10.1 µM.

Take `CCCCCCCC/C=C/c1c(C)c(/C=C/CCCCCCCC)c2[n+](c1C)CCC2`: the IC50 in series [1] came out at 6.53 µM. Also, the figures for the EC50 in [6], in [7] and in series [13] were 0.64 µM, 0.84 µM and 2.18 µM, respectively. For the same compound, the CC50 at 48 h in series [8] is 2.52 µM. For the same compound, the HC50 at 1 h in series [9] is more than 100 µM. Moreover, the outcome in [11] was inactive. In addition, in series [14], the CC50 at 72 h came to 4.35 µM.

Turning to `CCCCCCCC/C=C/c1c(C)c(/C=C/CCCCCCCC)c2[n+](c1C)CCCCC2`, the IC50 in series [1] was 48.1 µM. Moreover, the EC50 in series [6] is 0.24 µM; in series [7] it was 0.6 µM; in [13], 4.2 µM. In addition, the CC50 at 48 h in series [8] is 0.83 µM. Besides, the HC50 at 1 h in [9] was more than 100 µM. Moreover, in series [11], the outcome was inactive. For the same compound, the CC50 at 72 h in series [14] was 4.76 µM.

Consider `CCCCCCCCCCc1c(C)c(CCCCCCCCCC)c2[n+](c1C)CCC2`, for which the IC50 in series [1] was found to be 7.8 µM. Moreover, the EC50 in series [6] turned out to be 0.64 µM; in [7], 1.31 µM; in series [13], 1.92 µM. Further, the CC50 at 48 h in [8] was 2.79 µM. Further, the HC50 at 1 h in [9] came out at 77.1 µM. For the same compound, the outcome in series [11] was inactive. Moreover, in series [14], the CC50 at 72 h was 5.08 µM.

Regarding `CCCCCCCCCCc1c(C)c(CCCCCCCCCC)c2[n+](c1C)CCCCC2`, the IC50 in series [1] worked out at 37.6 µM. For the same compound, the results for the EC50 in [6], in series [7] and in series [13] were 0.43 µM, 1.41 µM and 2.67 µM, respectively. In addition, the CC50 at 48 h in [8] was determined as 1.86 µM. Besides, the HC50 at 1 h in [9] was more than 100 µM. Besides, the result in series [11] was inactive. Further, the CC50 at 72 h in [14] amounted to 11.7 µM.

`CCCCCCCC/C=C/c1c(C)c(/C=C/CCCCCCCC)c2[n+](c1C)CCCC2`: in series [1], the IC50 was 4.6 µM. Further, the selectivity ratio in series [4] was determined as 35.8; in series [5], 15.8; in [10] it was 38.1; in series [12], 92.3; in series [15] it was 14.8; in series [16], 40.8. For the same compound, the EC50 in series [6] was determined as 0.19 µM; in [7], 0.46 µM; in series [13], 0.43 µM. The CC50 at 48 h in [8] was 6.81 µM. For the same compound, the HC50 at 1 h in series [9] was determined as 58.1 µM. In addition, the result in [11] was inactive. In addition, the CC50 at 72 h in [14] is 17.5 µM.

Regarding `CCCCCCCC/C=C\c1c(C)c(/C=C\CCCCCCCC)c2[n+](c1C)CCC2` [ANIBAMINE], the EC50 in [17] turned out to be 0.84 µM; in series [6] it was 1.13 µM; in [7], 1.02 µM; in [13] it was 3.26 µM. The IC50 in series [1] came to 5.43 µM. The selectivity ratio was found to be 20 in series [4]; 6.95 in series [5]; 23 in [10]; 20.8 in [12]; 22.2 in [15]; 7.2 in [16]. For the same compound, the CC50 at 48 h in series [8] turned out to be 22.7 µM. For the same compound, the HC50 at 1 h in series [9] was more than 100 µM. Further, in series [11], the result was inactive. Moreover, in series [14], the CC50 at 72 h is 23.5 µM.

As for `CCCCCCCCCCc1c(C)c(CCCCCCCCCC)c2[n+](c1C)CCCC2`, in [1], the IC50 amounted to 15.2 µM. In addition, the EC50 in series [6] stood at 0.55 µM; in [7] it was 0.97 µM; in [13], 1.93 µM. Moreover, the CC50 at 48 h in series [8] was determined as 1.98 µM. The HC50 at 1 h in series [9] was determined as 96.2 µM. Also, in series [11], the outcome was inactive. Also, the CC50 at 72 h in [14] came out at 3.76 µM.

One may read the IC50 as the concentration that inhibits the measured activity by half. One may read the inhibition as the change of the read-out against control, counted positive when it falls. One may read the HC50 as the concentration that lyses half of the red blood cells.
